This is an account of results in patent publication US6469052B2, “Compounds for the photodecontamination of pathogens in blood” (Cerus Corporation, priority 1993, dated 2002).

SMILES strings stand for the structures.

The subject of one data set is Pseudomonus. In words: Bacterial inactivation (colony forming units). The format is cell-based. The following applies: 16 μM, after 5 J/cm^2 irradiation, starting titer 6.5 logs, 15% FBS in DMEM. How it is done: In this example bacterial inactivation by the photoreactive nucleic acid binding compounds of the present invention was measured as a function of the ability of the bacteria to subsequently replicate. A gram negative bacteria was chosen as representative of the more difficult bacterial strains to inactivate.
The bacteria, a strain of Pseudomonus, was innoculated into LB with a sterile loop and grown overnight in a shaker at 37° C. Based on the approximation that one OD at 610 nm is equivalent to 5×10^8 colony forming units (cfu)/mL, a 1:10 dilution of the culture was measured on a spectrophotometer, (manufactured by Shimatsu). The bacterial culture was added to a solution of 15% fetal bovine serum in DMEM to a final bacteria concentration of approximately 10^6/mL. An aliquot (0.8 mL) was transferred to a 1.5 mL snap-top polyethylene tube. An aliquot (0.004-0.040 mL) of the test compound stock solution prepared in water, ethanol or dimethylsulfoxide at 0.80-8.0 mM was added to the tube. Compounds were tested at a concentration of 16 μM. The tubes were placed in a light device as described in EXAMPLE 1 and irradiated with 1.3 J/cm^2, 1.2 J/cm^2, and finally 2.5 J/cm^2, for a total of 5 J/cm^2. […] The colony forming units were then counted the following morning and the titer of the […] remaining after phototreatment was calculated based on the dilution factors. […]

The test system of data set [1] is Chinese hamster ovary (CHO) cells. In words: In vitro genotoxicity screen in CHO cells. The format is cell-based. The conditions noted are these: approximately 3 hours exposure in the dark, dilutions 1-1000 μg/ml. The text has this:
The positive control was methylmethane sulfonate.
Coverslips were mounted with Permount.

In a further data set the test system is mouse reticulocytes. The following applies: increased dose levels, male Balb/c mice, tail vein. How it is done:
Male Balb/c mice were then injected with 0.1 ml of a compound solution via the tail vein. At least 3 mice were injected per dose level. Saline only was used as a negative control. For a positive control, cyclophosphamide (cycloPP) was administered at a dose of 30 mg/kg. In the experimental group, the injections were repeated once per day for four days. In the positive control group, the sample was administered only once, on day three. On day 5, several microliters of blood were withdrawn from each subject and smeared on a glass slide. Cells were fixed in absolute methanol and stored in a slide rack.
For analysis, cells were stained with acridine orange and visualized under a fluorescence microscope by counting: (i) the number of reticulocytes per 5000 erythrocytes; and (ii) the number of micronucleated reticulocytes per 1000 reticulocytes. Reticulocytes were distinguished by their red fluorescence due to the presence of RNA. Micronuclei were distinguished by their green fluorescence due to the presence of DNA. The percentage of reticulocytes (%PCE) was then calculated. A decrease in the frequency of […] in the percentage of reticulocytes, is an indication of bone marrow toxicity. The percentage of reticulocytes with micronuclei (%PCE with MN) was also calculated. An increase in %PCE with MN is a measure of clastogenicity.
After initial results were determined, the experiment was repeated using increased dose levels, until: (i) Micronucleus formation was seen; or (ii) Bone marrow toxicity was observed; or (ii) The lethal dose was reached; or (iv) A dose of 5 g/kg was administered.

Turning to `Cc1oc2c(C)c3oc(=O)cc(C)c3cc2c1COCCN` [Compound 2, 4′-(4-amino-2-oxa)butyl-4,5′,8-trimethylpsoralen], the “log kill of bacteria” value with Pseudomonus is given as more than 5.5 logs. Moreover, the “genotoxic (toxic) concentration” value in data set [1] came to 100 µg/mL. Further, the “outcome of dose escalation in the micronucleus assay” value in the data set with mouse reticulocytes is given as “the acutely lethal dose was reached before there were any signs of bone marrow toxicity or micronucleus formation”.
The matching figures for `Cc1oc2c(C)c3oc(=O)cc(C)c3cc2c1CNCCCCN` [Compound 6, 4′-(6-amino-2-aza)hexyl-4,5′,8-trimethylpsoralen]: more than 5.5 logs, 100 µg/mL and “the acutely lethal dose was reached before there were any signs of bone marrow toxicity or micronucleus formation”.
